{"source": "paper PMC11676896", "about": "“Protective Action of Cannabidiol on Tiamulin Toxicity in Humans—In Vitro Study” (International Journal of Molecular Sciences, 2024)", "key": {"MDA-MB-231": {"test_system": "MDA-MB-231", "parameters": "method as in PMID 28399915", "conditions": "MDA-MB-231, dose 6.25–100 µg/mL, treatment period 12–48 h; cited from earlier work"}, "SH-SY5Y cells": {"test_system": "SH-SY5Y cells", "assay": "LDH leakage assay (cell membrane integrity)", "type": "cell-based, human", "conditions": "72 h", "experimental": "(§1) The cytotoxic potential of the veterinary drug and its mixtures with cannabidiol at two non-toxic concentrations: 1.56 and 3.15 µg/mL, on the human SH-SY5Y, HepG2 and HEK 293 cell lines was assessed by decreased viability of the cells within five biochemical endpoints: mitochondrial activity and lysosomal activity (MTT assays, reducing the tetrazolium dye MTT 3-(4,5-dimethylthiazol-2-yl)-2,5-diphenyltetrazolium bromide and neutral red uptake (NRU) assays), total protein content (TPC assay), cellular membrane integrity (leakage lactate dehydrogenase (LDH) assay) and DNA synthesis (the bromodeoxyuridine/5-bromo-2′-deoxyuridine incorporation into the DNA cells (BrdU) assay) after 72 h exposition. Data obtained from the measurement of the optical density in these assays were transformed to percentages in relation to the negative control group (0.1% DMSO in medium), considered to be 100% for the MTT, NRU, TPC and BrdU assays and 0% for the LDH assay. 1% Trition-X 100 solution in medium was used as the positive controls, (Figure 3).\n(§2) The human neuroblastoma (SH-SY5H), hepatoma (HepG2) and kidney cells (HEK 293) cells were purchased from the American Type Culture Collection: ATCCCRL-2266,ATCC HB-8065 and ATCC CRL-1573, respectively. These cells were cultured in Minimum Essential Medium Eagle (MEME) (ATCC). The media were supplemented with 10% FBS, 1% L-glutamine (and 1% antibiotic solution (P4333 Sigma). The cells were maintained in 75 cm^2 cell culture flasks (NUNC) in a humidified incubator at 37 °C in an atmosphere of 5% CO2. The medium was refreshed every two or three days, and the cells were subcultured by 0.25% trypsin–0.02% EDTA after reaching 70–80% confluence. Single cell suspensions were prepared and adjusted to a density of 2 × 10^5 cell/mL^−1 (SH-SY5H), 1 × 10^5 cell/mL^−1 (HepG2) and 1 × 10^5 cell/mL^−1 (HEK-293). The cell suspension was transferred to 96-well plates (100 µL/well) or Lab-Tek chamber slides (8 wells) (Nunc) for staining and incubated for 24 h before the exposure to the studied compounds. Stock solutions of tiamulin fumarate and cannabidiol were prepared in DMSO and diluted with culture medium to obtain a concentration range from 1.56 to 200 µg/mL and 1.56 or 3.156 µg/mL, respectively. The selection of tiamulin concentrations was based on data from the literature and pilot studies. The final concentration of DMSO was 0.1% in the medium. The same final concentrations of the solvent and the 1% Trition-X 100 solution were used as the negative and positive controls, respectively. A total of 500 µM hydrogen peroxide (H2O2) in was used as the positive control in the DCFH assay. […] As a negative control, cultured cells were grown in the absence of studied compounds. Each concentration was tested in six replicates in three independent experiments. Cytotoxicity was assessed after 72 h of exposure of the cells to the compounds. The medium was not changed during the incubation time.\n(§3) The integrity of the plasma membrane was assessed through the test of lactate dehydrogenase (LDH) release, which was monitored using the commercially available Cytotoxicity Detection Kit (LDH) (Roche Diagnostics, Warsaw, Poland). The medium (100 µL/well) without cells was transferred into the corresponding wells of an optically clear 96-well flat bottom microplate, and 100 µL reaction mixture was added to each well. Then, the plates were incubated for 30 min at room temperature in darkness. After that time, 50 µL/well of 1 M HCl was added to stop the reaction. The absorbance was measured at 492 nm in a Synergy 2 Multi-Mode Microplate Reader (BiTek® Instruments Inc., Winooski, VT, USA) using a blank as a reference.\n(§4) This study was performed in three independent experiments. The obtained results are presented as mean values ± SD (standard deviation). […]"}, "HEK 293 cells [1]": {"test_system": "HEK 293 cells", "assay": "LDH leakage assay (cell membrane integrity)", "type": "cell-based, human", "experimental": "as §1, §2, §3, §4"}, "HepG2 cells [2]": {"test_system": "HepG2 cells", "assay": "LDH leakage assay (cell membrane integrity)", "type": "cell-based, human", "conditions": "HepG2, 72 h", "experimental": "as §1, §2, §3, §4"}, "CYP3A4": {"test_system": "CYP3A4", "parameters": "method as in PMID 15013817", "conditions": "cited from earlier work"}, "HEK 293 cells [3]": {"test_system": "HEK 293 cells", "assay": "BrdU assay (DNA synthesis)", "type": "cell-based, human", "experimental": "as §1, §2\n(§5) Cell proliferation was evaluated by BrdU assay using a Cell Proliferation ELISA, BrdU (colorimetric) kit (Roche, Switzerland), according to manufacturer’s instructions. Briefly, BrdU was incorporated in the place of thymidine into the DNA of cells under division. This BrdU was detected by an anti-BrdU antibody conjugated with peroxidase and the reaction product of the enzyme with the given substrate was quantified by measuring its absorbance. The absorbance (A) was measured at 370 nm and 492 nm in a Synergy 2 Multi-Mode Microplate Reader (BioTek® Instruments Inc., Winooski, VT, USA), using a blank as a reference.\n(§6) This study was performed in three independent experiments. The obtained results are presented as mean values ± SD (standard deviation). The assessment of the cytotoxicity data used a one-way analysis of variance (ANOVA) followed by Dunnett’s post hoc test, which was applied to determine significance relative to the negative control. […]"}, "HepG2 cells [4]": {"test_system": "HepG2 cells", "assay": "BrdU assay (DNA synthesis)", "type": "cell-based, human", "conditions": "HepG2, 72 h", "experimental": "as §1, §2, §5, §6"}, "RAW264.7 macrophages": {"test_system": "RAW264.7 macrophages", "parameters": "method as in PMID 35956888", "conditions": "cited from earlier work"}, "HEK-293 cells": {"test_system": "HEK-293 cells", "assay": "Cytotoxicity over the five assays (MTT, NRU, TPC, LDH, BrdU)", "type": "cell-based", "conditions": "Homo sapiens, HEK293, 72 h, read-out: IC50 values, range over the five assays", "experimental": "as §1\n(§7) The human neuroblastoma (SH-SY5H), hepatoma (HepG2) and kidney cells (HEK 293) cells were purchased from the American Type Culture Collection: ATCCCRL-2266,ATCC HB-8065 and ATCC CRL-1573, respectively. These cells were cultured in Minimum Essential Medium Eagle (MEME) (ATCC). […] Cytotoxicity was assessed after 72 h of exposure of the cells to the compounds. […]"}, "HepG2 cells [5]": {"test_system": "HepG2 cells", "assay": "Cytotoxicity over the five assays (MTT, NRU, TPC, LDH, BrdU)", "type": "cell-based", "conditions": "Homo sapiens, HepG2, 72 h, read-out: IC50 values, range over the five assays", "experimental": "as §1, §7"}, "[6]": {"conditions": "Homo sapiens, read-out: inhibited concentration (IC50), LDH"}}, "note": "Counter-ions that a name gives are not always drawn.", "data": [{"smiles": "C=C[C@]1(C)C[C@@H](OC(=O)CSCCN(CC)CC)[C@]2(C)[C@H](C)CC[C@]3(CCC(=O)[C@H]32)[C@@H](C)[C@@H]1O", "note": "[T, tiamulin fumarate]", "values": [{"measurement": "cell viability", "setting": "MDA-MB-231", "result": "cell viability decreased with increasing dose"}, {"measurement": "tiamulin concentration that caused disintegration of the cell membrane", "setting": "SH-SY5Y cells", "result": 25, "unit": "µg/mL"}, {"measurement": "IC50", "setting": "SH-SY5Y cells; [6]", "result": "> 200", "unit": "µg/mL"}, {"measurement": "tiamulin concentration that caused disintegration of the cell membrane", "setting": "HEK 293 cells [1]; HEK-293, 72 h", "result": 25, "unit": "µg/mL"}, {"measurement": "IC50", "setting": "HEK 293 cells [1]; Homo sapiens, HEK293, 72 h, read-out: inhibited concentration (IC50), LDH", "result": "76.9 ± 2.3", "unit": "µg/mL"}, {"measurement": "tiamulin concentration that caused disintegration of the cell membrane", "setting": "HepG2 cells [2]", "result": 25, "unit": "µg/mL"}, {"measurement": "IC50", "setting": "HepG2 cells [2]; [6]", "result": "39.5 ± 1.7", "unit": "µg/mL"}, {"measurement": "effect on CYP3A4", "setting": "CYP3A4", "result": "strongly blocks CYP3A4"}, {"measurement": "tiamulin concentration that inhibited DNA synthesis", "setting": "HEK 293 cells [3]; HEK-293, 72 h", "result": 12.5, "unit": "µg/mL"}, {"measurement": "IC50", "setting": "HEK 293 cells [3]; Homo sapiens, HEK293, 72 h, read-out: inhibited concentration (IC50), BrdU", "result": "14.6 ± 1.3", "unit": "µg/mL"}, {"measurement": "tiamulin concentration that inhibited DNA synthesis", "setting": "HepG2 cells [4]", "result": 25, "unit": "µg/mL"}, {"measurement": "IC50", "setting": "HepG2 cells [4]; Homo sapiens, read-out: inhibited concentration (IC50), BrdU", "result": "13.9 ± 0.8", "unit": "µg/mL"}, {"measurement": "concentrations that did not result in 50% reduction in the macrophages' viability", "setting": "RAW264.7 macrophages", "result": "up to 20 μg/mL"}, {"measurement": "concentrations with no significant cytotoxicity", "setting": "RAW264.7 macrophages", "result": "less than 5 μg/mL"}, {"measurement": "IC50", "setting": "HEK-293 cells", "result": "8.5 to 76.9", "unit": "µg/mL"}, {"measurement": "IC50", "setting": "HepG2 cells [5]", "result": "13.9 to 39.5", "unit": "µg/mL"}]}]}
